Measured values as given in patent publication US20030225081A1, “Pyridazinones and triazinones and medicinal use thereof” (priority 2000, published 2003).

Tested on: AMPA receptor
Experiment: Suppressing action to calcium influx into nerve cells induced by AMPA
Type: cell-based
Settings: Fura2-AM, stimulation with 2 μM AMPA, primary culture of rat embryo cerebral cortex nerve cells, 1 μM MK-801
Description: Suppressing Action to Calcium Influx into Nerve Cells Induced by AMPA
The suppressing action of the compounds of the present invention to calcium influx into nerve cells induced by AMPA was investigated using the primary culture system of nerve cells of cerebral cortex of embryo of rat.
Cerebral cortex was cut out from the brain of rat of gestational 18 days and treated with trypsin and DNase to disperse the cells. The cells were flown by MEM containing 10% of serum, sown in a culture bottle and astrocytes were proliferated. The astrocytes were re-dispersed by trypsin and sown in a 96-well plate. After incubation for one week, it was confirmed that the astrocytes covered all over the bottom and then the nerve cells of cerebral cortex which was dispersed by the above method were sown thereupon. After incubation for 24 hours, the medium was changed, the incubation was carried out for one week and, after that, the medium was changed to that containing 1 μM of MK-801. Nerve cells which were incubated for not shorter than 8 to 10 days were used.
Calcium influx into the cells was measured using Fura2-AM which was a calcium-sensitive fluorescent dye. It was treated in a medium containing Fura2-AM for 1 hour, incorporated into the cells, exchanged to a Tyrode solution containing 1 μM MK-801 and stimulation was carried out using 2 μM AMPA. Change in the amount of calcium flown into the cells were measured as the change in the fluorescent intensity at the exciting wave length of 340/380 nm. […] As the control compound, GYKI52466 (Le Peillet, et al., Brain Res., 571, 115, 1992) was used.

Row | Compound | IC50 [nM]
1 | COc1cccc(C2CC(c3ccccn3)=NN(c3ccccc3Br)C2=O)c1 (stereo not shown) [Example 1, 2-(2-Bromophenyl)-4-(3-methoxyphenyl)-6-(2-pyridyl)-4,5-dihydro-3 (2H)-pyridazinone] | 100
2 | O=C1C(c2cccc(O)c2)CC(c2ccccn2)=NN1c1ccccc1Br (stereo not shown) [Example 2, 2-(2-Bromophenyl)-4-(3-hydroxyphenyl)-6-(2-pyridyl)-4,5-dihydro-3 (2H)-pyridazinone] | 100
3 | O=c1c(-c2cccc(OCCO)c2)cc(-c2ccccn2)nn1-c1ccccc1Br [Example 3, 2-(2-Bromophenyl)-4-[3-(2-hydroxyethoxy)phenyl]-6-(2-pyridyl)-3 (2H)-pyridazinone] | 200
4 | N#Cc1ccccc1-n1nc(-c2ccccn2)cc(-c2cccc(OCCO)c2)c1=O [Example 4, 2-(2-Cyanophenyl)-4-[3-(2-hydroxyethoxy)phenyl]-6-(2-pyridyl)-3 (2H)-pyridazinone] | 60
5 | COc1ccccc1-c1cc(-c2ccccn2)c(=O)n(-c2ccccc2Br)n1 [Example 5, 2-(2-Bromophenyl)-6-(2-methoxyphenyl)-4-(2-pyridyl)-3 (2H)-pyridazinone] | 6700
6 | N#Cc1ccccc1N1N=C2c3ccccc3OCC2C(c2ccccc2)C1=O (stereo not shown) [Example 6, 2-(2-Cyanophenyl)-4-phenyl-2,3,4,4a-tetrahydro-5H-(1)benzopyrano[4,3-c]pyridazin-3-one] | 100
7 | N#Cc1ccccc1-n1nc2c(c(-c3ccccc3)c1=O)COc1ccccc1-2 [Example 7, 2-(2-Cyanophenyl)-4-phenyl-2,3-dihydro-5H-(1)benzopyrano[4,3-c]pyridazin-3-one] | 200
8 | O=C1C(c2cccnc2)C2COc3ccccc3C2=NN1c1ccccc1I (stereo not shown) [Example 8, 2-(2-Iodophenyl)-4-(3-pyridyl)-2,3,4,4a-tetrahydro-5H-(1)benzopyrano[4,3-c]pyridazin-3-one] | 100
9 | O=C1C(C(O)c2ccccn2)CC(c2ccccc2)=NN1c1ccccc1 (stereo not shown) [Example 11, 2,6-Diphenyl-4-(a-hydroxy-2-picolyl)-4,5-dihydro-3 (2H)-pyridazinone] | 9900
10 | N#Cc1ccccc1-n1nc(-c2ccccc2)cc(C(=O)NCCN2CCOCC2)c1=O [Example 12, 2-(2-Cyanophenyl)-4-(4-morpholinoethylaminocarbonyl)-6-phenyl-3 (2H)-pyridazinone] | 3900
11 | COc1ccccc1C1CC(c2ccccn2)=NN(c2ccccc2Br)C1=O (stereo not shown) [Example 14, 2-(2-Bromophenyl)-4-(2-methoxyphenyl)-6-(2-pyridyl)-4,5-dihydro-3 (2H)-pyridazinone] | 200
12 | COc1ccc(C2CC(c3ccccn3)=NN(c3ccccc3Br)C2=O)cc1 (stereo not shown) [Example 15, 2-(2-Bromophenyl)-4-(4-methoxyphenyl)-6-(2-pyridyl)-4,5-dihydro-3 (2H)-pyridazinone] | 200
13 | COc1ccc(Br)cc1C1CC(c2ccccn2)=NN(c2ccccc2Br)C1=O (stereo not shown) [Example 16, 2-(2-Bromophenyl)-4-(3-bromo-6-methoxyphenyl)-6-(2-pyridyl)-4,5-dihydro-3 (2H)-pyridazinone] | 700
14 | COc1ccccc1C1CC(c2ccccn2)=NN(c2ccccc2I)C1=O (stereo not shown) [Example 17, 2-(2-Iodophenyl)-4-(2-methoxyphenyl)-6-(2-pyridyl)-4,5-dihydro-3 (2H)-pyridazinone] | 200
15 | COc1ccccc1C1CC(c2ccccn2)=NN(c2ccccc2)C1=O (stereo not shown) [Example 18, 4-(2-Methoxyphenyl)-2-phenyl-6-(2-pyridyl)-4,5-dihydro-3 (2H)-pyridazinone] | 100
16 | O=C1C(c2ccccc2)CC(c2ccccn2)=NN1c1ccccc1Br (stereo not shown) [Example 19, 2-(2-Bromophenyl)-4-phenyl-6-(2-pyridyl)-4,5-dihydro-3 (2H)-pyridazinone] | 60
17 | O=C1C(c2ccccc2)CC(c2cccnc2)=NN1c1ccccc1Br (stereo not shown) [Example 20, 2-(2-Bromophenyl)-4-phenyl-6-(3-pyridyl)-4,5-dihydro-3 (2H)-pyridazinone] | 100
18 | O=C1C(c2ccccc2)CC(c2ccccc2)=NN1c1ccccn1 (stereo not shown) [Example 21, 4,6-Diphenyl-2-(2-pyridyl)-4,5-dihydro-3 (2H)-pyridazinone] | 500
19 | COc1ccccc1C1CC(c2ccccn2)=NN(c2ccccn2)C1=O (stereo not shown) [Example 22, 4-(2-Methoxyphenyl)-2-(2-pyridyl)-6-(2-pyridyl)-4,5-dihydro-3 (2H)-pyridazinone] | 2700
20 | N#Cc1ccccc1-c1cc(-c2ccccn2)nn(-c2ccccc2)c1=O [Example 23, 4-(2-Cyanophenyl)-2-phenyl-6-(2-pyridyl)-3 (2H)-pyridazinone] | 100

Row | Compound | IC50 [nM]
21 | COc1ccccc1C1CC(c2cccnc2)=NN(c2ccccc2Br)C1=O (stereo not shown) [Example 24, 2-(2-Bromophenyl)-4-(2-methoxyphenyl)-6-(3-pyridyl)-4,5-dihydro-3 (2H)-pyridazinone] | 60
22 | O=C1C(c2ccccc2Br)CC(c2ccccn2)=NN1c1ccccc1 (stereo not shown) [Example 25, 4-(2-Bromophenyl)-2-phenyl-6-(2-pyridyl)-4,5-dihydro-3 (2H)-pyridazinone] | 200
23 | COc1ccccc1N1N=C(c2ccccn2)CC(c2ccccc2)C1=O (stereo not shown) [Example 26, 2-(2-Methoxyphenyl)-4-phenyl-6-(2-pyridyl)-4,5-dihydro-3 (2H)-pyridazinone] | 300
24 | O=C1C(c2ccccc2)CC(c2ccccn2)=NN1c1ccccc1[N+](=O)[O-] (stereo not shown) [Example 27, 4-Phenyl-2-(2-nitrophenyl)-6-(2-pyridyl)-4,5-dihydro-3 (2H)-pyridazinone] | 40
25 | O=C1C(c2ccccc2)CC(c2ccccn2)=NN1c1ccccc1F (stereo not shown) [Example 28, 2-(2-Fluorophenyl)-4-phenyl-6-(2-pyridyl)-4,5-dihydro-3 (2H)-pyridazinone] | 100
26 | O=C1C(c2ccc(O)cc2)CC(c2ccccn2)=NN1c1ccccc1Br (stereo not shown) [Example 30, 2-(2-Bromophenyl)-4-(4-hydroxyphenyl)-6-(2-pyridyl)-4,5-dihydro-3 (2H)-pyridazinone] | 200
27 | O=c1c(-c2ccccn2)cc(-c2ccccc2O)nn1-c1ccccc1Br [Example 31, 2-(2-Bromophenyl)-6-(2-hydroxyphenyl)-4-(2-pyridyl)-3 (2H)-pyridazinone] | 900
28 | O=c1c(-c2ccccc2O)cc(-c2ccccn2)nn1-c1ccccc1 [Example 32, 4-(2-Hydroxyphenyl)-2-phenyl-6-(2-pyridyl)-3 (2H)-pyridazinone] | 100
29 | O=C1C(c2ccccc2O)CC(c2ccccn2)=NN1c1ccccc1 (stereo not shown) [Example 33, 4-(2-Hydroxyphenyl)-2-phenyl-6-(2-pyridyl)-4,5-dihydro-3 (2H)-pyridazinone] | 70
30 | O=C1C(c2ccccc2O)CC(c2cccnc2)=NN1c1ccccc1Br (stereo not shown) [Example 34, 2-(2-Bromophenyl)-4-(2-hydroxyphenyl)-6-(3-pyridyl)-4,5-dihydro-3 (2H)-pyridazinone] | 300
31 | O=c1c(-c2cccc(OCc3ccccn3)c2)cc(-c2ccccn2)nn1-c1ccccc1Br [Example 37, 2-(2-Bromophenyl)-4-[3-(2-picolyloxyphenyl)]-6-(2-pyridyl)-3 (2H)-pyridazinone] | 100
32 | O=C1C(c2ccccc2OS(=O)(=O)C(F)(F)F)CC(c2ccccn2)=NN1c1ccccc1 (stereo not shown) [Example 38, 2-Phenyl-6-(2-pyridyl)-4-(2-trifluoromethylsulfonyloxyphenyl)-4,5-dihydro-3 (2H)-pyridazinone] | 400
33 | COc1ccccc1C1CC(c2ccccn2)=NN(c2ccccc2C#N)C1=O (stereo not shown) [Example 39, 2-(2-Cyanophenyl)-4-(2-methoxyphenyl)-6-(2-pyridyl)-4,5-dihydro-3 (2H)-pyridazinone] | 50
34 | COc1ccccc1-c1cc(-c2ccccn2)nn(-c2ccccc2C#N)c1=O [Example 40, 2-(2-Cyanophenyl)-4-(2-methoxyphenyl)-6-(2-pyridyl)-3 (2H)-pyridazinone] | 100
35 | N#Cc1ccccc1N1N=C(c2ccccn2)CC(c2ccccc2O)C1=O (stereo not shown) [Example 41, 2-(2-Cyanophenyl)-4-(2-hydroxyphenyl)-6-(2-pyridyl)-4,5-dihydro-3 (2H)-pyridazinone] | 30
36 | N#Cc1ccccc1-n1nc(-c2ccccn2)cc(-c2ccccc2O)c1=O [Example 42, 2-(2-Cyanophenyl)-4-(2-hydroxyphenyl)-6-(2-pyridyl)-3 (2H)-pyridazinone] | 100
37 | N#Cc1ccccc1-n1nc(-c2ccccn2)cc(-c2ccccc2)c1=O [Example 43, 2-(2-Cyanophenyl)-4-phenyl-6-(2-pyridyl)-3 (2H)-pyridazinone] | 100
38 | COc1ccc(Br)cc1-c1cc(-c2ccccn2)nn(-c2ccccc2C#N)c1=O [Example 44, 2-(2-Cyanophenyl)-4-(3-bromo-6-methoxyphenyl)-6-(2-pyridyl)-3 (2H)-pyridazinone] | 200
39 | N#Cc1ccccc1-c1cc(-c2ccccn2)nn(-c2ccccc2C#N)c1=O [Example 46, 2-(2-Cyanophenyl)-4-(2-cyanophenyl)-6-(2-pyridyl)-3 (2H)-pyridazinone] | 300
40 | N#Cc1ccccc1-n1nc(-c2ccccn2)cc(-c2ccccc2Br)c1=O [Example 47, 4-(2-Bromophenyl)-2-(2-cyanophenyl)-6-(2-pyridyl)-3 (2H)-pyridazinone] | 200
